Results: PMC12040169 (PLOS Biology, 2025)

Experiment: in vitro
Details: human, hela cells, % viability

Compound	viability at 28.5 h, 10 µM [%]
Cc1nn(C)c(C)c1C1CCCN1CC(=O)NCc1ccccn1 (stereo not drawn) [CBK305501]	94.9
Cc1cc(NC(=O)CN2CCN(Cc3ccc(Cl)nc3)CC2)no1 [CBK305504]	104
Cc1c(C(=O)N2CCN(C3CC3)CC2)nnn1Cc1ccc(F)cc1F [CBK305507]	97.1
Cc1cccn2c(=O)cc(CN3CCc4nn(C)c(=O)cc4C3)nc12 [CBK305514]	98.2
CCNC(=O)CN1CCN(c2nc(C(F)(F)F)ccc2C#N)CC1 [CBK305515]	86.4
CCCC(=O)Nc1ccc(OCc2ncc(C(C)C)o2)c(C(C)=O)c1 [CBK305516]	100
CC(=O)c1cccc(NC(=O)N(CCO)C2CCc3ccccc32)c1 (stereo not drawn) [CBK305517]	93.4
Cc1cccn2c(=O)cc(CN3CCC(n4ccnc4)CC3)nc12 [CBK305519]	92.3
CNC(=O)c1ccc(NC(=O)N2CCCCC2c2ccnn2C)cc1 (stereo not drawn) [CBK305521]	112
Cc1nnsc1C(=O)Nc1ncn(CC(=O)N2CCCCCC2)n1 [CBK305522]	96.9
COc1ccc(Cl)cc1C1(CNC(=O)C2CCC(N)C2)CCOCC1 (stereo not drawn) [CBK305523]	85.9
O=C(O)c1ccc(C(=O)NC2CCN(CC(F)(F)F)C2=O)s1 (stereo not drawn) [CBK305524]	95.4
CC(=O)Nc1cccc(CN2CCCC(CO)C2)c1 (stereo not drawn) [CBK305527]	91.9
Cc1nnnn1-c1cc(NC(=O)NCC2CCCO2)ccc1F (stereo not drawn) [CBK305528]	105
Cc1c(C(=O)N2CCS(=O)(=O)CC2)nnn1-c1ccc2ncccc2c1 [CBK305529]	112
CN(C(=O)C1(C)CCOCC1)c1nc2c(s1)CC(c1ccccc1)CC2 (stereo not drawn) [CBK305531]	82.8
O=C1NC(=O)C2(CCN(C(=O)c3csc4c3CCCC4)C2)N1 (stereo not drawn) [CBK305533]	89.8
CC(C)Cc1nc(C(=O)N2CCC3(C2)NC(=O)NC3=O)cs1 (stereo not drawn) [CBK305534]	91.8
CC(C)N(C)CC(=O)N(C)c1nc2c(s1)CC(c1ccccc1)CC2 (stereo not drawn) [CBK305535]	93.7
Cn1cc(CNS(=O)(=O)c2ccc(Br)c(F)c2)cn1 [CBK305539]	87.7
CC1CCC(N(Cc2nnc(C3CCC3)n2C)CC2CCCO2)CC1 (stereo not drawn) [CBK305540]	97.3

Compound	viability at 28.5 h, 10 µM [%]
O=C(c1ccc2cc[nH]c2c1)N1CCN(CC2CCOC2)CC1 (stereo not drawn) [CBK305541]	99.2
CC(C)n1nnnc1-c1ccccc1NS(=O)(=O)c1cn[nH]c1 [CBK305542]	88.6
O=C(NC1CC(=O)N(CC(F)(F)F)C1)c1cnc(-c2ccncc2)s1 (stereo not drawn) [CBK305546]	78
CCOc1cc(NC2CCN(C(=O)C3CCCC(C)(C)C3)CC2)ncn1 (stereo not drawn) [CBK305547]	80.9
Cc1nnc(CN(CC2CCCO2)C2CCC(C)CC2)n1C (stereo not drawn) [CBK305548]	95.2
O=C(c1c[nH]nc1-c1cc2ccccc2o1)N1CCC(O)(C(F)(F)F)C1 (stereo not drawn) [CBK305549]	90.7
CCC(=O)N1CCC(NC(=O)c2cnc(-c3ccncc3)s2)C1 (stereo not drawn) [CBK305550]	94.6
COc1ccc(-n2nnc(C(=O)N3CCCCC3C(N)=O)c2C)cc1 (stereo not drawn) [CBK305551]	98.1
Cc1ccc2c(c1)nc(CNC(=O)NCCc1nc(C)no1)n2C [CBK305552]	98.8
Cc1ccc2c(c1)nc(CNC(=O)NC1CCCc3cn[nH]c31)n2C (stereo not drawn) [CBK305554]	77.5
CC1(O)CCCN(C(=O)c2c[nH]nc2-c2cc3ccccc3o2)C1 (stereo not drawn) [CBK305555]	88.3
CCS(=O)(=O)N1CCc2cc(-c3csc(-c4cnn(C)c4)n3)ccc21 [CBK305560]	93.7
Cc1ccc(Cl)cc1NC(=O)C1CC(=O)N(Cc2ccccn2)C1 (stereo not drawn) [CBK305561]	101
Cc1cc(NC(=O)CN(C)C(=O)Cc2cccc(C(F)(F)F)c2)no1 [CBK305564]	80.5
O=C1NC2(CCCC2)C(=O)N1Cc1cnn(-c2ccccc2)n1 [CBK305568]	103
Cc1oc(NC(=O)CN2CCN(c3ncccn3)CC2)c(C#N)c1C [CBK305569]	94.6
O=C1NC2(CCCCC2)C(=O)N1Cc1cnn(-c2ccccc2)n1 [CBK305570]	97.8
Cn1ccc(C(=O)NCc2cccnc2OCC(F)(F)F)cc1=O [CBK305574]	99.9
Cc1cc(NC(=O)CN(C)C(=O)c2ccc(-n3cc(Br)cn3)cc2)no1 [CBK305575]	100
CN(C1CCCCC1)S(=O)(=O)NCCc1cn2ccccc2n1 [CBK305576]	102
CCn1c(=O)n(CCC(N)=O)c2cc(S(=O)(=O)N(C)C)ccc21 [CBK305577]	99.6

Compound	viability at 28.5 h, 10 µM [%]
O=C(NCc1cccnc1OCC(F)(F)F)c1ccc(=O)[nH]n1 [CBK305578]	92.1
O=C(Cn1ccc(=O)[nH]c1=O)NCc1cccnc1OC1CCCC1 [CBK305582]	94.9
CCOC(=O)Cc1csc(SC(C)C(=O)N2CCc3ccccc3C2)n1 (stereo not drawn) [CBK305586]	99.9
COCCn1nc(C(=O)N2CCCc3ccccc32)ccc1=O [CBK305590]	85.1
CC(=O)Nc1nc(CN2CCOC(c3ccc(F)cc3)C2)cs1 (stereo not drawn) [CBK305591]	98.5
O=C(Cn1cccn1)NCC(c1ccccc1Cl)N1CCOCC1 (stereo not drawn) [CBK305593]	93.1
CCCC1(C)NC(=O)N(Cc2coc(-c3cccs3)n2)C1=O (stereo not drawn) [CBK305594]	100
O=C(NCCc1ccsc1)N1CCN(c2ccncc2)CC1 [CBK305595]	102
CN(CC1CCCN(C(=O)Nc2cccc(Cl)c2)C1)C(=O)OC(C)(C)C (stereo not drawn) [CBK305597]	94.2
CN1CCN(c2nc(-c3ccc4c(c3)CCCC(=O)N4)cs2)CC1 [CBK305600]	98.6
O=C1NC(=O)C2(CCN(C(=O)c3csc4c3CCCC4)CC2)N1 [CBK305601]	97.2
CC(=O)N1CCN(C(=O)C(C)S(=O)(=O)c2ccccc2F)CC1 (stereo not drawn) [CBK305603]	97.7
CCOc1ccc(CN(C)CC(=O)Nc2cc(C)no2)cc1 [CBK305605]	79.8
CCOc1ccc(CN(C)C(C)C(=O)Nc2cc(C)no2)cc1 (stereo not drawn) [CBK305607]	96.6
COCCNC(=O)CN(C)c1nc(-c2ccncc2)nc2ccccc12 [CBK305611]	94.2
Cn1cc(CCNC(=O)NC2CCN(c3ncccn3)CC2)cn1 [CBK305612]	104
CCOC(=O)c1cnn2c(O)cc(CN(Cc3ccco3)C3CC3)nc12 [CBK305613]	82.3
COc1ccc(CC(=O)NCC(c2cccs2)N2CCOCC2)cc1F (stereo not drawn) [CBK305618]	99.5
CS(=O)(=O)NC1CCCN(c2ncnc3ccccc23)C1 (stereo not drawn) [CBK305619]	111
Cc1cc(C)n(CC(=O)NCC(c2cccs2)N2CCOCC2)n1 (stereo not drawn) [CBK305620]	102
Cc1cc(C)n(CC(C)CNC(=O)Cc2csc(N3CCCC3=O)n2)n1 (stereo not drawn) [CBK305624]	91.2

Compound	viability at 28.5 h, 10 µM [%]
Cn1cc(-c2nc(C(=O)NC3CCCN(c4ncccn4)C3)cs2)cn1 (stereo not drawn) [CBK305629]	77.7
CC(C)c1nc(CC(=O)NCCS(=O)(=O)N2CCc3ccccc32)cs1 [CBK305630]	84.5
Cc1occc1C(=O)Nc1nc(CC(=O)N(C)Cc2ccsc2)cs1 [CBK305631]	83.8
Cc1nc(-c2ccsc2)sc1C(=O)NC1CCCN(c2ncccn2)C1 (stereo not drawn) [CBK305632]	87.6
Cn1cc(-c2nc(C(=O)NCC3CCN(c4ccccc4)C3)cs2)cn1 (stereo not drawn) [CBK305633]	84.8
CC1c2ccsc2CCN1C(=O)CC(NC(N)=O)c1cccc(Br)c1 (stereo not drawn) [CBK305635]	110
Cc1cc(NC(=O)CCc2c(C)nc(N3CCOCC3)[nH]c2=O)no1 [CBK305636]	93.2
O=C(NCCNc1cnccn1)c1ccc(Br)cc1F [CBK305639]	89.5
COCCn1c(SCc2nc3ccccc3nc2C)nc(C)c1C [CBK305651]	106
Cc1c(C(=O)NC2CCCN(c3ncccn3)C2)cnn1C(C)(C)C (stereo not drawn) [CBK305652]	91.3
Cn1cc(CCNC(=O)Nc2ccc(N3CCCCC3)nc2)cn1 [CBK305656]	95.2
Cc1nn(C)c2ncc(C(=O)N(C)Cc3ccc(C(C)(C)C)cc3)cc12 [CBK305657]	99.9
O=C(NCc1cccs1)NC1CCCc2c1cnn2CCO (stereo not drawn) [CBK305658]	100
Cc1nc(COc2ccc(C(=O)N3CCCC(C(N)=O)C3)cc2)no1 (stereo not drawn) [CBK305660]	84.2
CCOC(=O)C1CCCN(C(=O)Nc2cc(C)on2)C1 (stereo not drawn) [CBK305661]	81.8
CCCNC(=O)CN1CCC(NC(=O)Cn2cc(Br)ccc2=O)CC1 [CBK305665]	94
Cn1cc(-c2nc(C(=O)NCc3ccnc(N4CCCC4)c3)cs2)cn1 [CBK305666]	92.9
O=C(Cn1cc(Br)ccc1=O)NC1CCCN(Cc2ccccc2)C1 (stereo not drawn) [CBK305668]	83.7
